Data: patent US8946201B2, “Methods for inhibiting TGF-β” (Saint Louis University, priority 2007, dated 2015)

Experiments:
PAI-1 expression = assay: TGF-β1-induced PAI-1 expression, Northern blot, NRK cells; format: cell-based, rat; details: 50 μg/ml, TGF-β1 2 to 100 pM
Description: (A, B, C, D, E, F) Cells were treated with 50 μg/ml cholesterol (A, B, C, D) and 50 μg/ml LDL (D) at 37° C. for 1 hr or with 1 μM fluvastatin or lovastatin (E) or several concentrations of fluvastatin (F) at 37° C. for 16 hr and then further incubated with increasing concentrations (as indicated) of TGF-β1 (A, B, C, E) or 50 pM TGF-β1 (D,F) for 2 hr. Northern blot analysis of PAI-1 and G3PDH was performed. A representative of a total of three analyses is shown (a). The relative intensities of the transcripts were quantified with a PhosphoImager. The ratio of the relative intensities of PAI-1 and G3PDH transcripts in cells treated without TGF-β1 and cholesterol, LDL or statins on the blot was taken as 1 fold or 100% of PAI-1 expression. The quantitative data from three independent analyses is shown (b). […] (G) Mv1Lu cells stably expressing a luciferase reporter gene driven by the PAI-1 promoter (MLECs-clone 32) were treated with increasing concentrations (as indicated) of cholesterol at 37 EC for 1 hr (a) or with 1 μM lovastatin at 37° C. for 16 hr (b) and then further incubated with 50 pM TGF-β for 7 hr. The luciferase activity in cells treated without cholesterol was taken as 100% (a). […] (H) Cells were incubated with 0.0625 and 0.125 pM TGF-β1 in the presence of increasing concentrations of cholesterol, as indicated. […] The experiments were carried out in triplicate.

TβR-I and TβR-II [1] = assay: 125I-TGF-β1 affinity labeling, NRK cells; format: cell-based, rat; details: 1 hr
Description: (B, C, D, E) Cells were treated with increasing concentrations of cholesterol in the presence (C) and absence (B, D, E) of 0.2% β-CD, as indicated. After 1 hr at 37° C., ^125I-TGF-β1 affinity labeling of TβR-I and TβR-II in cells was performed at 0° C. ^125I-TGF-β1 affinity-labeled TβR-I and TβR-II were analyzed by 7.5% SDS-PAGE and autoradiography or quantified with a PhosphoImager. A representative of a total of three analyses is shown (top). The bracket indicates the locations of ^125I-TGF-β affinity-labeled TβR-I and TβR-II. The relative intensities of ^125I-TGF-β1 affinity-labeled TβR-I and TβR-II in cells treated without cholesterol were taken as 100%. The quantitative data from three analyses is shown (bottom).
After cross-linking, cell lysates were analyzed by 7.5% SDS-PAGE and autoradiography or quantified by a PhosphoImager. For all experiments, cholesterol or cholesterol derivatives were prepared as the stock solution with a concentration of 25 mg/ml in ethanol. The final concentration of ethanol in the medium was 0.2% (by vol.).

TβR-I and TβR-II [2] = assay: Western blot of TβR-I and TβR-II protein levels, Mv1Lu cells; format: cell-based, mink; details: 50 μg/ml
Description: Cells grown to near confluence on 12-well cluster dishes were treated with cholesterol or LDL in serum-free DMEM (vol.=0.5 ml/well) at 37° C. for 1 hr. The treated cells were further incubated with 50 or 100 pM TGF-β1 at 37° C. for 30 min (for determining Smad2 phosphorylation) or for 2 hr (for determining TβR-II). Treated cells were lysed and cell lysates were analyzed by 7.5% SDS-PAGE and Western blot analysis using anti-Smad2, anti-P-Smad2, anti-caveolin-1, anti-TβR-I (alk5) or anti-TβR-II antibodies as described previously (30). The antigens on the blots were visualized by using horseradish peroxidase-conjugated anti-rabbit IgG antibody and the ECL system as described (30).
To determine if cholesterol suppresses TGF-β responsiveness by decreasing the ratio of TGF-β1 binding to TβR-II and TβR-I, we first determined the time course of the effect of cholesterol treatment on the ratio of ^125I-TGF-β1 binding to TβR-II and TβR-I in Mv1Lu cells. These cells were treated with 50 μg/ml cholesterol at 37° C. for several time periods. ^125I-TGF-β1 binding to TGF-β receptors was then determined by affinity labeling using the bifunctional cross-linking agent DSS (disuccinimidyl suberate) followed by 7.5% SDS-PAGE and autoradiography or quantified with a PhosphoImager. […] We then performed analysis of the effect of cholesterol treatment on TGF-β1 binding to TβR-I and TβR-II in several cell types. Mv1Lu, BAEC, and NRK cells were treated for 1 hr with increasing concentrations of cholesterol in the presence and absence of 0.2% β-cyclodextrin (β-CD, which forms water-soluble complexes with cholesterol) at 37° C. The binding of TGF-β1 to TβR-I and TβR-II in these cells was then determined by ^125I-TGF-β1 affinity labeling at 0° C.

Compound: CC(C)CCC[C@@H](C)[C@H]1CC[C@H]2[C@@H]3CC=C4C[C@@H](O)CC[C@]4(C)[C@H]3CC[C@]12C [cholesterol]
- suppression of TGF-β1-stimulated PAI-1 expression (PAI-1 expression): 60-65%
- increase of 125I-TGF-β1 binding to TβR-I (TβR-I and TβR-II [1]; 50 μg/ml): ~5.7 fold
- ratio of TβR-II/TβR-I (TβR-I and TβR-II [1]; 50 μg/ml, 2.0 untreated): 0.35
- effect on binding of 125I-TGF-β1 to TβR-II (TβR-I and TβR-II [1]; increasing concentrations): did not significant alter
- effect on the protein levels of TβR-I and TβR-II (TβR-I and TβR-II [2]; data not shown): did not affect
- effect on the total amount of TβR-II protein (TβR-I and TβR-II [2]; cholesterol alone): did not affect
